Measurements from patent US20250376458A1, “COMPOUNDS AND METHODS FOR YAP/TEAD MODULATION AND INDICATIONS THEREFOR” (OPNA BIO SA, priority 2023, published 2025).
Like-named read-outs stand apart in the source and are kept apart here.

Tested on: TEAD-dependent transcription
Assay: TEAD-dependent transcription cell-based luciferase reporter assay (MSTO-211H+12XGTIIC)
Design: species or system human
Conditions: MSTO-211H+12XGTIIC cell line, 24 hours compound incubation, luminescence normalized to cell viability fluorescence signal, read-out: MSTO-211H GMean IC50 (uM) Cell Assay Reporter Cell Variant: TEAD
Text: Determine Inhibitor Activity Against TEAD-Dependent Transcription in a Cell-Based Reporter Assay
The human mesothelioma cell line MSTO-211H was stably transfected with a pGL4.21 plasmid containing a synthetic promoter with 12 copies of the GTIIC TEAD response element that drives the expression of a luciferase reporter gene i using Lipofectamine transfection reagent (Thermo Fisher). Transfected cells were selected using puromycin and single cell clones expressing this construct (referred to as MSTO-211H+12XGTIIC) were generated by limiting dilution. MSTO-211H cells was characterized by genetic alterations in key components of the Hippo pathway^2, resulting in up-regulation of YAP/TEAD-mediated transcription. […] To evaluate TEAD inhibitors, the MSTO-211H+12XGTIIC cell line was seeded in a 96-well plate in 50 μL of culture media at 1×10^4 cells per well and incubated at 37° C. overnight. Serial dilutions of compounds (in total volume of 50 μL of culture media) were added to the cells and incubated at 37° C. for 24 hours. Each plate included cells treated with DMSO as high controls and cells treated with 20 μM of the reference compound K-975 (a known TEAD inhibitor)^3 as low controls. Cell viability was assayed by the addition of 25 μL of CellTiter-Fluor reagent (Promega) followed by a 30-minute incubation at 37° C. and quantification of the fluorescence signal (Ex400/Em505). Subsequently, luciferase expression was assayed by the addition of 25 μL of ONE-Glo reagent (Promega) followed by a 10-minute incubation at room temperature and quantification of the luminescence signal. The luminescence signal was normalized to the fluorescence signal to correct for any loss in cell viability over the 24-hour compound incubation period. The percentage of inhibition of normalized luminescence signal, indicative of compound-mediated inhibition of TEAD-dependent transcription, at individual compound concentrations relative to high and low controls was calculated. The data were analyzed by using nonlinear regression to generate IC50 values for individual compounds.

| Structure (SMILES) | IC50 (Homo sapiens, MSTO-211H, 24 h) | IC50 |
| --- | --- | --- |
| CS(=O)(=O)c1nc(C(=O)N2CCc3c(cccc3Oc3ccc(C(F)(F)F)c(F)c3)C2)c[nH]1 [O-0114, (5-(3-fluoro-4-(trifluoromethyl)phenoxy)-3,4-dihydroisoquinolin-2(1H)-yl)(2-(methylsulfonyl)-1H-imidazol-4-yl)methanone] | 0.001 to 10 µM |  |
| CS(=O)(=O)c1nc(C(=O)N2CCc3c(cccc3Nc3ccc(C(F)(F)F)cn3)C2)c[nH]1 [O-0003, (2-(methylsulfonyl)-1H-imidazol-4-yl)(5-((5-(trifluoromethyl)pyridin-2-yl)amino)-3,4-dihydroisoquinolin-2(1H)-yl)methanone] | 0.001 to 10 µM |  |
| CS(=O)(=O)c1nc(C(=O)N2CCc3c(cccc3Nc3ccc(C(F)(F)F)nc3)C2)c[nH]1 [O-0009, (2-(methylsulfonyl)-1H-imidazol-4-yl)(5-((6-(trifluoromethyl)pyridin-3-yl)amino)-3,4-dihydroisoquinolin-2(1H)-yl)methanone] | 10 to 100 µM |  |
| CS(=O)(=O)c1nc(C(=O)N2CCc3c(cccc3Nc3ccc(C(F)(F)F)cc3F)C2)c[nH]1 [O-0010, (5-((2-fluoro-4-(trifluoromethyl)phenyl)amino)-3,4-dihydroisoquinolin-2(1H)-yl)(2-(methylsulfonyl)-1H-imidazol-4-yl)methanone] | 0.001 to 10 µM |  |
| CS(=O)(=O)c1nc(C(=O)N2CCc3ccc(Nc4ccc(C(F)(F)F)c(F)c4)cc3C2)c[nH]1 [O-0121, (7-((3-fluoro-4-(trifluoromethyl)phenyl)amino)-3,4-dihydroisoquinolin-2(1H)-yl)(2-(methylsulfonyl)-1H-imidazol-4-yl)methanone] |  | 0.001 to 10 µM |
| CS(=O)(=O)c1nc(C(=O)N2CCc3ccc(Nc4ccc(C(F)(F)F)cn4)cc3C2)c[nH]1 [O-0015, (2-(methylsulfonyl)-1H-imidazol-4-yl)(7-((5-(trifluoromethyl)pyridin-2-yl)amino)-3,4-dihydroisoquinolin-2(1H)-yl)methanone] | 10 to 100 µM |  |
| CS(=O)(=O)c1nc(C(=O)N2CCc3c(ncnc3Oc3ccc(C(F)(F)F)c(F)c3)C2)c[nH]1 [O-0128, (4-(3-fluoro-4-(trifluoromethyl)phenoxy)-5,8-dihydropyrido[3,4-d]pyrimidin-7(6H)-yl)(2-(methylsulfonyl)-1H-imidazol-4-yl)methanone] |  | 10 to 100 µM |
| CS(=O)(=O)c1nc(C(=O)N2CCc3ccc(Nc4ccc(C(F)(F)F)nc4)cc3C2)c[nH]1 [O-0016, (2-(methylsulfonyl)-1H-imidazol-4-yl)(7-((6-(trifluoromethyl)pyridin-3-yl)amino)-3,4-dihydroisoquinolin-2(1H)-yl)methanone] | 10 to 100 µM |  |
| Cn1cc(C(=O)N2CCc3c(cccc3Nc3ccc(C(F)(F)F)cc3)C2)nc1S(C)(=O)=O [O-0007, (1-methyl-2-(methylsulfonyl)-1H-imidazol-4-yl)(5-((4-(trifluoromethyl)phenyl)amino)-3,4-dihydroisoquinolin-2(1H)-yl)methanone] | 0.001 to 10 µM |  |
| Cn1c(C(=O)N2CCc3c(cccc3Nc3ccc(C(F)(F)F)cc3)C2)cnc1S(C)(=O)=O [O-0008, (1-methyl-2-(methylsulfonyl)-1H-imidazol-5-yl)(5-((4-(trifluoromethyl)phenyl)amino)-3,4-dihydroisoquinolin-2(1H)-yl)methanone] | 0.001 to 10 µM |  |
| O=C(c1c[nH]c(S(=O)(=O)C2CCC2)n1)N1CCc2c(cccc2Oc2ccc(C(F)(F)F)cc2)C1 [O-0125, (2-(cyclobutylsulfonyl)-1H-imidazol-4-yl)(5-(4-(trifluoromethyl)phenoxy)-3,4-dihydroisoquinolin-2(1H)-yl)methanone] | 0.001 to 10 µM |  |
| CS(=O)(=O)c1nc(C(=O)N2CCc3ccc(Nc4ccc(C(F)(F)F)cc4)cc3C2)c[nH]1 [O-0013, (2-(methylsulfonyl)-1H-imidazol-4-yl)(7-((4-(trifluoromethyl)phenyl)amino)-3,4-dihydroisoquinolin-2(1H)-yl)methanone] | > 100 µM |  |
| CS(=O)(=O)c1nc(C(=O)N2CCc3c(cccc3Oc3ccc(C(F)(F)F)cc3F)C2)c[nH]1 [O-0118, (5-(2-fluoro-4-(trifluoromethyl)phenoxy)-3,4-dihydroisoquinolin-2(1H)-yl)(2-(methylsulfonyl)-1H-imidazol-4-yl)methanone] | 0.001 to 10 µM |  |
| CCS(=O)(=O)c1nc(C(=O)N2CCc3c(cccc3Nc3ccc(C(F)(F)F)c(F)c3)C2)c[nH]1 [O-0025, (2-(ethylsulfonyl)-1H-imidazol-4-yl)(5-((3-fluoro-4-(trifluoromethyl)phenyl)amino)-3,4-dihydroisoquinolin-2(1H)-yl)methanone] | > 100 µM |  |
| Cn1c(C(=O)N2CCc3c(cccc3Nc3ccc(C(F)(F)F)cn3)C2)cnc1S(C)(=O)=O [O-0006, (1-methyl-2-(methylsulfonyl)-1H-imidazol-5-yl)(5-((5-(trifluoromethyl)pyridin-2-yl)amino)-3,4-dihydroisoquinolin-2(1H)-yl)methanone] | 0.001 to 10 µM |  |
| CC(C)S(=O)(=O)c1nc(C(=O)N2CCc3c(cccc3Oc3ccc(C(F)(F)F)cc3)C2)c[nH]1 [O-0021, (2-(isopropylsulfonyl)-1H-imidazol-4-yl)(5-(4-(trifluoromethyl)phenoxy)-3,4-dihydroisoquinolin-2(1H)-yl)methanone] | 0.001 to 10 µM |  |
| CNS(=O)(=O)c1nc(C(=O)N2CCc3cc(Oc4ccc(C(F)(F)F)cc4)ccc3C2)c[nH]1 [O-0111, N-methyl-4-(6-(4-(trifluoromethyl)phenoxy)-1,2,3,4-tetrahydroisoquinoline-2-carbonyl)-1H-imidazole-2-sulfonamide] | 0.001 to 10 µM |  |
| CS(=O)(=O)c1nc(C(=O)N2CCc3ccc(Nc4ccc(C(F)(F)F)c(F)c4)cc3C2)c[nH]1 [O-0018, (7-((3-fluoro-4-(trifluoromethyl)phenyl)amino)-3,4-dihydroisoquinolin-2(1H)-yl)(2-(methylsulfonyl)-1H-imidazol-4-yl)methanone] |  | 10 to 100 µM |
| CCCS(=O)(=O)c1nc(C(=O)N2CCc3c(cccc3Nc3ccc(C(F)(F)F)c(F)c3)C2)c[nH]1 [O-0026, (5-((3-fluoro-4-(trifluoromethyl)phenyl)amino)-3,4-dihydroisoquinolin-2(1H)-yl)(2-(propylsulfonyl)-1H-imidazol-4-yl)methanone] | 0.001 to 10 µM |  |
| CCS(=O)(=O)c1nc(C(=O)N2CCc3c(ncnc3Oc3ccc(C(F)(F)F)cc3)C2)c[nH]1 [O-0130, (2-(ethylsulfonyl)-1H-imidazol-4-yl)(4-(4-(trifluoromethyl)phenoxy)-5,8-dihydropyrido[3,4-d]pyrimidin-7(6H)-yl)methanone] | 10 to 100 µM |  |
| CS(=O)(=O)c1nc(C(=O)N2CCc3c(ncnc3Oc3ccc(C(F)(F)F)cc3)C2)c[nH]1 [O-0131, (2-(methylsulfonyl)-1H-imidazol-4-yl)(4-(4-(trifluoromethyl)phenoxy)-5,8-dihydropyrido[3,4-d]pyrimidin-7(6H)-yl)methanone] |  | 10 to 100 µM |
| CCCS(=O)(=O)c1nc(C(=O)N2CCc3cc(Oc4ccc(C(F)(F)F)cc4)ccc3C2)c[nH]1 [O-0081, (2-(propylsulfonyl)-1H-imidazol-4-yl)(6-(4-(trifluoromethyl)phenoxy)-3,4-dihydroisoquinolin-2(1H)-yl)methanone] | 0.001 to 10 µM |  |
| CC(C)S(=O)(=O)c1nc(C(=O)N2CCc3c(cccc3Nc3ccc(C(F)(F)F)cc3)C2)c[nH]1 [O-0022, (2-(isopropylsulfonyl)-1H-imidazol-4-yl)(5-((4-(trifluoromethyl)phenyl)amino)-3,4-dihydroisoquinolin-2(1H)-yl)methanone] | 0.001 to 10 µM |  |
